Results from US20100041603A1, “Method of Promoting Wound Healing” (Corthera, Inc., priority 2008, published 2010).
Entries after “also recorded” stand apart in the source; their conditions may differ.

Tests used:
wounded sites = conditions: systemic relaxin administration in rats; cited from earlier work
[1] = system: 20×6 mm incisional wounds on the back; experiment: Porcine skin wound study (incisional wounds, six weeks); format: in vivo, juvenile pigs; conditions: dose range 10-960 μg/kg/day
[2] = Canine gingiva study: RLX migration and degradation after gingival injection (SELDI-TOF MS); format: in vivo, dog; conditions: for RLX detection in gingiva away from the site of injection: 1 hr time point; for concentration of H2 RLX detected in treated dog gingiva: site of injection
Procedure: The aim of this study was to determine the rate of RLX migration and extent of degradation after gingival injections. […] Employing a dog model, RLX was administered and tissue punch biopsies were collected at the site of injection and 0.5, 1 and 2 cm from the site of injection. Tissue was collected at several time points including 1, 2 and 4 hrs after injection. Protein was extracted from the gingival biopsies and analysed via ProteinChip technology (Surface Enhanced Laser Desorption/Ionization Time-of-Flight Mass Spectrometry, SELDI-TOF MS), which combines two well-established methods of solid phase chromatography and TOF-MS into an integrated platform. ProteinChip arrays were coated with anti-H2 RLX Ab, allowing the specific capture of RLX and associated breakdown/modified products.
Design of Drug. Gingival injections were administered (25 μg H2 RLX/100 μl, 41 μM) and tissue was collected at several positions including the site of injection and 0.5, 1 and 2 cm from the site of injection. Tissue was collected 1, 2 and 3 hrs after injection.
a) Protein Extraction and Quantitation. Frozen gingival biopsies were homogenized in extraction buffer (10 μl/mg tissue) containing 10 mM Tris-HCl, 10 mM NaCl, 0.1% TFA and protease inhibitor (complete mini, Roche). The extract was centrifuged (6000×g) for 10 min and the supernatant was collected, aliquoted and stored at −80° C. Total protein concentration was determined using the Bradford assay. Protein concentrations ranged from 1.4 mg/ml to 2.8 mg/ml, all samples were standardized to 1.4 mg/ml in extraction buffer.
b) SELDI-TOF MS analysis—Analysis of RLX treated gingiva on PG20 arrays. Anti-H2 RLX Ab ([…]/0.25 mg/ml; Genentech) or control IgG (Ciphergen Biosystems) was applied to each spot of a PS20 array which had been pre-coated with Protein G (Ciphergen Biosystems). After antibody binding, the chip was washed once with PBS/0.5% Triton X-100 for 5 min with agitation (5 μl per spot), followed by two PBS washes. Dog gingiva extracts (3 μl/1.4 mg/ml) were applied to each spot and incubated for 4 hrs. Non-specifically bound proteins were removed by sequentially washing with PBS/0.5% Triton X-100, PBS and 1 mM HEPES, pH 7.2. The chips were air dried and 1 μl of 50% saturated sinapinic acid in 50% (v/v) acetonitrile, 0.5% trifluoroacetic acid was applied onto each spot twice, arrays were air dried between each application. Chips were subsequently analysed by SELDI-TOF MS (Ciphergen Biosystems) using the following settings, laser 220 and sensitivity 9.
c) Generation of H2 RLX Std Curve on PG20 arrays. H2 RLX (batch number 11835-89) was spiked into control dog gingiva (1.4 mg/ml) at different concentrations, including 100 nM, 50 nM, 12.5 nM, 6.25 nM, 3.125 nM and 1.56 nM and analysed as described above.
Findings. In order to quantitate the levels of RLX in the treated gingiva samples a H2 RLX standard curve was generated. The linear dynamic range was determined to be two orders of magnitude with a R^2 value of 0.9495.

[3] = system: 20×6 mm incisional wounds on the back; experiment: Porcine skin wound study (incisional wounds, six weeks); format: in vivo, juvenile pigs
Text: Overview of the Animal Study. In selecting the appropriate animal for this study, a pig was selected because of the anatomical similarities between pig skin and human skin. In fact, pig wound healing has been used in numerous studies to simulate human skin (Sullivan et al., Wound Repair Regen. 9: 66-76, 2001).
Design of Study. In this study, juvenile pigs were oriented with twelve wound sites per animal—20×6 mm incisional wounds on the back—over the course of a six week study (see FIG. 2). Systemic relaxin was delivered via mini-pumps to achieve 20 ng/mL serum concentrations. Topical formulations were prepared by Dow Pharma, and consisted of propylene glycol and ethanol, which contributed to good long term stability of the therapeutic agent. Dosages consisting of placebo, 0.5 mg/mL (low dose), and 2.5 mg/mL (high dose) were prepared. The goals of the study were to assess the safety of topical relaxin on wound healing and to determine the efficacy of relaxin as a treatment for wound healing and/or scar formation. During the first week, irrigation was performed once daily. During weeks 2-3, topical formulation was applied twice daily, and during weeks […], topical formulation was applied once daily.
Design of Drug The study drug was relaxin (produced by recombinant technology). Recombinant relaxin is identical to the native human hormone H2 relaxin, produced using a recombinant single chain process. The active test article may be aseptically diluted to the desired concentration with the acetate diluent (20 mM sodium acetate, pH 5.0).
Study Procedures. Referring to FIG. 3 which depicts the back of a pig with incisions according to the experimental design described herein at the completion of six weeks, the wound in Section 3 was irrigated with relaxin construct during the first week, and subsequently treated with high dose topical relaxin formulation during weeks 2-6 as described above. Sections 4, 5, and 6 received no irrigation during week 1. Section 4 was treated with placebo. Section 5 was treated with low dose topical formulation, and Section 6 was treated with high dose topical formulation.
Cosmetic appearance of skin. Visual rankings of wound pictures were conducted by neutral observers who evaluated scabs during early wound healing (days 5-7) and scars at the end of the study (see FIG. 4). […] The results of this visual wound assessment determined that 89% of the time a relaxin treatment group was selected in the top three. Only 11% of the time, a group not treated with relaxin was selected in the top three.
A cosmetic score was also determined by a professional dermatologist at weeks 2, 4, and 6. The cosmetic score has five components: (1) color—matching with surrounding skin; (2) texture—no hardness; (3) distortion—no distortion of nearby skin; (4) contour—flush with surrounding skin; (5) global—no hypertrophy or keloid formation. During this dermatological assessment, evaluation at time 2 weeks was obscured by scabs, so the data for cosmetic scores was collected from evaluation at weeks 4 and 6 (see FIG. 5). […] In the bottom profile, the scar is visible.
Histological evaluation. A professional histopathologist evaluated the pathology of the treatments for such indications as granulation, inflammation, and necrosis. In judging granulation tissue, it is considered that early response to wound includes invasion of the site by fibroblasts, inflammatory cells, and new blood vessels. Over time, this resolves to more normal tissue as the site heals. Chronic inflammation characterized by the presence of macrophages, giant cells, lymphocytes, and PMNs indicated adverse reaction. Minor factors such as keratosis (formation of keratin layer outside the epidermis) and acanthosis (thickening of the epidermal layer) are also considered. […]

[4] = systemic relaxin vs wounds not receiving systemic relaxin
[5] = systemic relaxin, six weeks, blinded assessments

## relaxin: Recombinant relaxin identical to the native human hormone H2 relaxin, produced using a recombinant single chain process
Wounded sites
  VEGF and bFGF transcripts at wounded sites: upregulation
  new blood vessel formation at wounded sites: increased new blood vessel formation
[1]
  adverse effects and tolerability over dose range: no relevant adverse effects; also recorded: well-tolerated
[2]; 0.5 cm from site of injection
  RLX detection in gingiva away from the site of injection: detected
[2]; 1 cm from site of injection
  RLX detection in gingiva away from the site of injection: not detected
[2]; 2 cm from site of injection
  RLX detection in gingiva away from the site of injection: not detected
[2]; remaining time points (2 and 4 hrs)
  RLX detection in gingiva: only detected at the site of injection
[2]; 1 hr after gingival injection (25 μg H2 RLX/100 μl)
  concentration of H2 RLX detected in treated dog gingiva: 90 nM
[2]; 2 hrs after gingival injection
  concentration of H2 RLX detected in treated dog gingiva: 78 nM
[2]; 4 hrs after gingival injection
  concentration of H2 RLX detected in treated dog gingiva: 21 nM
[3]; after about six weeks of treatment
  blood vessels / redness in the wound site: overall reduction in blood vessels; also recorded: significantly less redness
[3]; after day six, systemic relaxin
  wound appearance compared to control pig: healed faster, better
[3]; blinded neutral observers ranking the best three of six groups of wound pictures
  visual wound assessment: share of times a relaxin treatment group was selected in the top three: 89%
[3]; dermatologist cosmetic score, weeks 4 and 6, irrigation relaxin treatment vs only topical relaxin treatment
  cosmetic ranking of wound/scar areas, irrigation vs topical only: ranked higher overall
[3]; pig, in vivo
  adverse effects associated with relaxin treatment (histopathology): no adverse effects
  necrosis or inflammation associated with relaxin treatment: no necrosis or inflammation
[3]; six weeks of treatment, systemic relaxin vs placebo
  scar visibility at wound site: the scar is invisible; also recorded: no scar was visible
[3]; six weeks, relaxin treatment vs no relaxin treatment (severe scarring)
  scarring on histopathological slide: mild scarring
[3]; [4]
  collagen organization (objective collagen scoring system, redness ratio): significantly better collagen organization
  composite wound healing score (three point scale, collagen appearance): significantly improved
[3]; [5]
  chronic inflammation in wound sites (histology score): significantly reduced
  granulation tissue in wound sites (histology score): significantly reduced
[3]; systemic treatment compared to topical administration
  wound healing, systemic vs topical administration: better wound healing
[3]; topical-only treatment (low and high dose, sections 5 and 6 vs section 4), six weeks
  wound healing compared to placebo: improved wound healing
